Laboratory results as given in patent US12310973B2, “Administration and dosage of diaminophenothiazines” (WisTa Laboratories Ltd., priority 2016, dated 2025).
Several values for one entry are separate records, joined by “and”; a condition that tells them apart may be missing. Identical values can stand only once.

Tested on: mild to moderate AD patients
Assay: Phase 3 trial in mild to moderate AD: ADCS-ADL change from baseline
Assay type: in vivo, human
Text: The co-primary efficacy outcomes were change from baseline in 11-item Alzheimer's Disease Assessment Scale—cognitive subscale (ADAS-cog) and the 23-item Alzheimer's Disease Cooperative Study Activities of Daily Living (ADCS-ADL). Magnetic resonance imaging (MRI) volumetry was chosen as the principal secondary outcome to support a potential effect on the rate of brain atrophy (Fox et al., 1997; Ridha et al., 2008). Change in Lateral Ventricular Volume (LVV), as measured by the Ventricular Boundary Shift Integral (VBSI), (Salloway et al., 2014) was chosen as the principal measure as it provides high-contrast boundaries for measurement and is less affected by motion artefacts than whole brain or smaller structures. Key supportive topographical measures (temporo-parietal (TPV) and hippocampal volume (HV)) are also reported.
Patients were recruited at 115 sites across 16 countries between January 2013 and August 2014. Enrolment of approximately 833 patients was targeted, with 891 patients actually recruited, in order to obtain data on approximately 500 patients completing the study, assuming a 30-40% drop-out rate. […] Adult caregiver(s) were required to participate. Concomitant use of AChEIs and/or memantine was permitted, provided the patient had been taking the medication(s) for […], with no changes to the dosage for 26 weeks prior to screening. Concomitant use of serotonergic antidepressant medication was permitted, but patients were monitored closely using a targeted rating scale derived from 4 published diagnostic criteria (Alusik et al., 2014) due to a theoretical potential for serotonin syndrome (Ramsay et al., 2007). […] Because MT^+ in high doses can induce methaemoglobinaemia, subjects with glucose-6-phosphate dehydrogenase deficiency or who were otherwise at haematological risk were excluded. Other inclusion/exclusion criteria are provided in the Supplementary Materials.
Patients were randomised at baseline to LMTM 75 mg b.i.d. or 125 mg b.i.d. (expressed as MT base equivalent) or control in a 3:3:4 ratio. The randomisation was stratified according to geographical region (3 levels: North America, Europe, rest of world), use of AD-labelled co-medications (2 levels, using or not using) and severity (2 levels, moderate MMSE 14-19 inclusive, mild MMSE 20-26 inclusive). Patients in the control arm received a dose of 4 mg b.i.d. to maintain blinding.
ADAS-cog and ADCS-ADL assessments were performed at baseline and every 13 weeks thereafter, with change at 65 weeks (the final on-treatment visit) the primary efficacy measures. These were repeated at the final off-treatment follow-up visit at Week 69. Secondary efficacy measures included Clinical Global Impression of Change (ADCS-CGIC, administered by an independent rater); MMSE, administered on screening and at Weeks 26, 52, 65 and 69. Brain MRI scans were performed at baseline/screening and every 13 weeks using a standardized protocol including volumetric 3D T1-weighted data consistent with ADNI recommendations, FLAIR, T2* Gradient Echo and T2-weighted sequences. Diffusion-Weighted Imaging was also available at screening in order to exclude patients with co-existing pathology that would lead to a diagnosis other than probable AD. Each site was first qualified ensuring standardised acquisition protocol, patient handling and data management. MRI data were centrally collected by Imaging Corelab (Bioclinica). Data were centrally reviewed by RadMD for eligibility and safety (Amyloid Related Imaging Abnormalities, or ARIA monitoring) on an on-going basis. Volumetric 3DT1 data were also reviewed centrally in order to measure (using a boundary shift integral (BSI) technique; Salloway et al., 2014) change in LVV as principal secondary outcome measure, and as exploratory endpoints temporo-parietal volume (TPV), whole brain volume (WBV) and hippocampal volume (HV, estimated as the mean of left and right) (Wischik et al., 2016). […]

CN(C)c1ccc2c(c1)Sc1cc(N(C)C)ccc1N2 [LMTM, leuco-methythioninium bis(hydromethanesulfonate)]
ADCS-ADL effect size as % of the decline over 65 weeks seen in the control arm (75 mg b.i.d. monotherapy, 65 weeks): 82%±23%
ADCS-ADL effect size as % of the decline over 65 weeks seen in the control arm (125 mg b.i.d. monotherapy, 65 weeks): 88%±23%
ADCS-ADL, Estimate (change from baseline) (Table 2 primary analysis, 65 weeks, covariates additive, control arm (LMTM 4 mg b.i.d.)): −8.22 ADCS-ADL units
ADCS-ADL, Estimate (difference with respect to control) (Table 2 primary analysis, 65 weeks, 75 mg b.i.d.): −0.93 ADCS-ADL units
ADCS-ADL, Estimate (difference with respect to control) (Table 2 primary analysis, 65 weeks, 125 mg b.i.d.): −0.34 ADCS-ADL units
ADCS-ADL, Estimate (mean additive treatment benefit) (Table 2 primary analysis, 65 weeks, patients not using AChEI/Mem (additive covariate)): 2.00 ADCS-ADL units
ADCS-ADL, Estimate (difference vs control) (Table 3, AChEI/Mem as interaction term, 65 weeks, 75 mg b.i.d. + AChEI/Mem): −2.16 ADCS-ADL units
ADCS-ADL, Estimate (difference vs control) (Table 3, AChEI/Mem as interaction term, 65 weeks, 75 mg b.i.d. monotherapy): 6.48 ADCS-ADL units
ADCS-ADL, Estimate (difference vs control) (Table 3, AChEI/Mem as interaction term, 65 weeks, 125 mg b.i.d. + AChEI/Mem): −1.62 ADCS-ADL units
ADCS-ADL, Estimate (difference vs control) (Table 3, AChEI/Mem as interaction term, 65 weeks, 125 mg b.i.d. monotherapy): 6.92 ADCS-ADL units and 6.93 ADCS-ADL units
ADCS-ADL, Estimate (change from baseline) (Table 3, AChEI/Mem as interaction term, 65 weeks, control arm (4 mg b.i.d.)): −7.92 ADCS-ADL units
ADCS-ADL, Estimate (change from baseline) (Table 4 post-hoc, control-arm subjects, 4 mg b.i.d. + AChEI/Mem): −8.90 ADCS-ADL units
ADCS-ADL, Estimate (difference) (Table 4 post-hoc, control-arm subjects, 4 mg b.i.d. monotherapy vs 4 mg b.i.d. + AChEI/Mem): 7.19 ADCS-ADL units
ADCS-ADL, Estimate (change from baseline) (Table 7, mild AD, 4 mg b.i.d. + AChEI/Mem (control-arm subjects)): −3.86 ADCS-ADL units
ADCS-ADL, Estimate (difference) (Table 7, mild AD, 4 mg b.i.d. alone vs 4 mg b.i.d. + AChEI/Mem): 5.20 ADCS-ADL units
ADCS-ADL, Estimate (difference) (Table 7, mild AD, 75 mg b.i.d. alone vs control arm as randomised): 4.65 ADCS-ADL units
ADCS-ADL, Estimate (difference) (Table 7, mild AD, 125 mg b.i.d. alone vs control arm as randomised): 7.77 ADCS-ADL units
ADCS-ADL, Estimate (change from baseline) (Table 7, mild AD, control arm as randomised (4 mg b.i.d.)): −3.20 ADCS-ADL units
ADCS-ADL, Estimate (change from baseline) (Table 7, moderate AD, 4 mg b.i.d. + AChEI/Mem (control-arm subjects)): −11.91 ADCS-ADL units
ADCS-ADL, Estimate (difference) (Table 7, moderate AD, 4 mg b.i.d. alone vs 4 mg b.i.d. + AChEI/Mem): 7.70 ADCS-ADL units
ADCS-ADL, Estimate (difference) (Table 7, moderate AD, 75 mg b.i.d. alone vs control arm as randomised): 6.89 ADCS-ADL units
ADCS-ADL, Estimate (difference) (Table 7, moderate AD, 125 mg b.i.d. alone vs control arm as randomised): 5.53 ADCS-ADL units
ADCS-ADL, Estimate (change from baseline) (Table 7, moderate AD, control arm as randomised (4 mg b.i.d.)): −10.93 ADCS-ADL units
ADCS-ADL decline at 12 months (mean±se) (control arm (LMTM 4 mg b.i.d.), 12 months): −6.51±0.63
Mean treatment benefit relative to control on ADCS-ADL (mild patients, LMTM monotherapy): 156%±39%
